“Also recorded” adds a separate entry of the source.
Assays:
p53 = test: Western blot of p53 serine-15 phosphorylation; type: cell-based; settings: A549, western blot
Experimental: Real-Time PCR—A549 cells were plated in 10 cm dishes at 1.5×10^6, allowed to adhere, and treated for 24-48 hours with cisplatin or SMIs (5 μM). Referring now to FIG. 16B, Western blot of cells treated sequentially. For sequential treatment, A549 cells were exposed to cisplatin for 24 hours followed by the addition of SMIs for another 24 hours as above. Referring now to FIG. 16A, A549 cells were treated sequentially or concurrently with cisplatin (5 μM) and MCI13E or MCI13F for 24 total hours. Lysates were probed for p53-ser15-phosphorylation or phosphorylated-ATM. GAPDH was probed as a loading control. Concurrently treated cells were incubated simultaneously with both cisplatin and MCIs for 24 hours. RNA was extracted using RNeasy minikit (Qiagen, Germantown, Md.) per manufacturer's protocol. cDNA was generated using Applied Biosystem's (ABI) High Capacity RNA-to-cDNA kit. Validated gene primer/probe sets, also from ABI, were used for Quantitative Real Time-PCR. ABI's ΔΔCT Relative Quantification methodology was used for the analyses (applied Biosystems). Data were normalized to the housekeeping gene GAPDH and calibrated to the mock treated samples. Results presented are the average of two separate cell treatments/RNA isolations with duplicate Taqman Assays per RNA sample set. […]

A549 cell lines = test: Combination with ionizing radiation, A549; type: cell-based; settings: A549, data not shown
[1] = target: T1, full-length heterotrimeric RPA (Homo sapiens, UniProt P27694); test: EMSA in vitro DNA binding assay, full-length heterotrimeric RPA; settings: ssDNA substrate
T1 construct: Human full-length, un-tagged heterotrimeric RPA (RPA) was purified as previously describe; made in house
Experimental: RPA. Human full-length, un-tagged heterotrimeric RPA (RPA) was purified as previously describe.
RPA and DBD-A/B Binding. EMSAs were performed as previously described (22) using a 30-base purine rich ssDNA substrate (3Pc3). Briefly, reactions contained 12.5 nM 5′-[^32P]-labeled 3Pc3 ssDNA and the indicated concentrations of RPA or DBD-A/B. Protein was pre-incubated with the indicated concentration of SMI for 30 minutes at 37° C. DNA was then added and reactions incubated for an additional 5 minutes at room temperature in a final reaction volume of 40 μL. Reactions were then resolved on a 6% native polyacrylamide gel and electrophoresed at 170 volts for 1 hour. Gels were dried and quantified via phosphorimager analysis and ImageQuant software (Molecular Dynamics).

EcSSB = target: T2, EcSSB (Escherichia coli, UniProt P0AGE0); test: E. coli SSB DNA-binding EMSA; settings: 0-200 μM, pre-incubated with protein
T2 construct: purchased Enzymatics, Beverly, Mass
Experimental: In order to study the specificity of the CheSS19, and MCI13E/F compounds, their effects on two ssDNA binding proteins which use OB-folds for recognition and binding of ssDNA, E. coli SSB (6) and the Schizosaccharomyces pombe Pot1(DBD) domain (11) were studied. The EcSSB protein is a non-sequence-specific ssDNA binding protein, whereas the SpPot1(DBD) protein is a telomere-specific, ssDNA binding protein. In these experiments, protein was pre-incubated with the SMIs, as was done for the RPA experiments, prior to addition of radiolabeled ssDNA to the reactions.
Referring now to FIG. 6B. CheSS19 titration in EcSSB DNA-binding reactions. CheSS19 (0, 25, 50, 100, and 200 μM) was pre-incubated with EcSSB and binding reactions were carried out. Referring now to FIG. 6C. Titration of MCI13E and MCI13F in EcSSB DNA-binding reactions. Concentrations of MCI13E/F used were: 0, 25, 50, 100, and 200 μM. In all panels, the ‘Free’ ssDNA is indicated with an arrow and the ‘Bound’ ssDNA is indicated by brackets. All reactions were performed in the same order and manner as the RPA binding reactions. EcSSB binding was unaffected by CheSS19 and the MCI13E and MCI13F compounds […].
EMSAs were performed similarly to those for the RPA constructs, with the following exceptions. Reactions contained 25 nM of 5′-[^32P]-labeled 3Pc3 ssDNA and 3.3 nM (assuming homotetramer formation) SSB protein (Enzymatics, Beverly, Mass.). Reactions (20 μL) were carried out in 20 mM HEPES, pH 7.5, 1 mM DTT, 0.01% NP-40, 100 mM NaCl, and resolved by 6% native polyacrylamide gel electrophoresis at 25 mA for 2 hours. Gels were dried and quantified via phosphorimager analysis and ImageQuant software (Molecular Dynamics).

T1 sequence (P27694 whole entry): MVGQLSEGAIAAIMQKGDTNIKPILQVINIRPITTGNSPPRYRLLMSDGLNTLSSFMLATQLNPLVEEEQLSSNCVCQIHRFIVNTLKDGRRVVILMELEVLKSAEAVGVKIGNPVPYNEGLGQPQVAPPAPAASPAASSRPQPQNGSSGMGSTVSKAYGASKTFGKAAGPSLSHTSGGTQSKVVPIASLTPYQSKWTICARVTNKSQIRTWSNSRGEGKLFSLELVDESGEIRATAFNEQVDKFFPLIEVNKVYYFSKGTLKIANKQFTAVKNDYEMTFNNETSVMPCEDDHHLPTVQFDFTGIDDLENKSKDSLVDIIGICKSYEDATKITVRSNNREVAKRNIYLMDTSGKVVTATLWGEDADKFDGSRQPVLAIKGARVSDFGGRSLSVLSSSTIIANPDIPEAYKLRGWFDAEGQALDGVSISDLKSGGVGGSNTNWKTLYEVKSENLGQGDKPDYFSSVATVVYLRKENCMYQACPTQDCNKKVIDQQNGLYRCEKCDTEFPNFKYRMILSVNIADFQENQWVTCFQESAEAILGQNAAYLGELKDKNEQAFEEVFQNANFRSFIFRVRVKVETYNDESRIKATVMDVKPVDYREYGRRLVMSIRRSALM
T1 sequence (P15927 whole entry partner): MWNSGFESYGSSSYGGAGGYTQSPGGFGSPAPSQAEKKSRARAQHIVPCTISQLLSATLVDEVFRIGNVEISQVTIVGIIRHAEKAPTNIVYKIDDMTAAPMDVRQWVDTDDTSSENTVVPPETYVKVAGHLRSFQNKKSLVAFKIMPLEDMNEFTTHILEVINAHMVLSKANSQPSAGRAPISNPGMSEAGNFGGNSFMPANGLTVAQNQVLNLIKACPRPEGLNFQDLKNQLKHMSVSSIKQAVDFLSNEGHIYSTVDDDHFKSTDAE
T1 sequence (P35244 whole entry partner): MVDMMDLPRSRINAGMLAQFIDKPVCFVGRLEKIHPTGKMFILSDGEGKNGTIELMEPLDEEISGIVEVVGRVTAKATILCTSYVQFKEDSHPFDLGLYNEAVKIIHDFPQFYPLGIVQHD
T2 sequence (P0AGE0 2-178): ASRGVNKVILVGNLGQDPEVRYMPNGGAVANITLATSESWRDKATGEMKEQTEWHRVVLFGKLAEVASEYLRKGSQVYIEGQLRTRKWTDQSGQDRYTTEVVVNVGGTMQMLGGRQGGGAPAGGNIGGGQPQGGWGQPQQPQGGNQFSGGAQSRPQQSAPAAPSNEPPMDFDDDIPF

Row | SMILES | p53 serine-15 phosphorylation, single agent (p53) | Cell death in combination with ionizing radiation (A549 cell lines) | Inhibition of full-length RPA DNA binding [1] | Effect on EcSSB ssDNA binding (EcSSB)
1 | CC1(C)C2CCC1(C)C(OC(=O)CBr)C2 (racemic) [MCI13E, (+/−)-Isobornyl bromoacetate] | minimal single-agent effects on p53 phosphorylation | at best, an additive increase in cell death | inhibits RPA-DNA binding in vitro; also recorded: inhibition of the full-length heterotrimer RPA | unaffected; also recorded: no significant inhibition
2 | CC1(C)C2CCC1(C)C(OC(=O)CI)C2 (racemic) [MCI13F, (+/−)-Isobornyl iodoacetate] | minimal single-agent effects on p53 phosphorylation | at best, an additive increase in cell death | slightly more effective | unaffected; also recorded: no significant inhibition
